Laboratory results taken from article PMC4013547 (ACS chemical biology, 2013).

target: Ldtfm (E. faecium L,D-transpeptidase, catalytic domain) (Enterococcus faecium, UniProt Q3Y185); experiment: NMR chemical shift perturbation; type: binding; settings: covalent; active-site cysteine Cys442; Pocket 1

Q: With C[C@@H](O)[C@H]1C(=O)N2C(C(=O)O)=C(S[C@@H]3CN[C@H](C(=O)N(C)C)C3)[C@H](C)[C@H]12 [meropenem] as the compound, how does the “NMR chemical shift perturbation” value read?
A: NMR chemical shift perturbations observed with imipenem, doripenem and meropenem

Q: How did the “NMR chemical shift perturbation” value turn out when C[C@@H](O)[C@H]1C(=O)N2C(C(=O)O)=C(SCCN=CN)C[C@H]12 [imipenem] was run?
A: NMR chemical shift perturbations observed with imipenem, doripenem and meropenem

Q: C[C@@H](O)[C@H]1C(=O)N2C(C(=O)O)=C(S[C@@H]3CN[C@H](CNS(N)(=O)=O)C3)[C@H](C)[C@H]12 [doripenem] was tested. Which “NMR chemical shift perturbation” value did it give?
A: NMR chemical shift perturbations observed with imipenem, doripenem and meropenem
